According to US4432974A, “Antiinflammatory and/or analgesic 2,3-diaryl-5-silyl thiophenes” (E. I. Du Pont de Nemours and Company, priority 1982, dated 1984):
Like-named read-outs stand apart in the source and are kept apart here.

Legend:
[1] = test system: phenylquinone-induced writhing in mice; experiment: Phenylquinone Writhing Test; format: in vivo, female white mice; details: Mus musculus, read-out: Phenylquinone Writhing ED50
Procedure: A standard procedure for detecting and comparing the analgesic activity of compounds in this series for which there is a good correlation with human efficacy is the standard phenylquinone writhing test modified from Siegmund, et al., Proc. Soc. Exp. Biol. Med., 95, 729 (1957). A test compound suspended in 1% methylcellulose was given orally to fasted (17-21 hours) female white mice, 5-20 animals per double blind test. Aqueous (0.01% phenyl-p-benzoquinone) phenylquinone, 0.20 ml per mouse, was injected intraperitoneally 6 minutes before observations were begun. […] The effective analgesic dose for 50% of the mice (ED50) was calculated by the moving average method of Thompson, W. R., Bact. Rev., 11, 115-145 (1947); the time of peak activity was determined for many of the compounds. Data for some of the compounds is summarized in Tables II and III together with data for some standard analgetic antiinflammatory drugs.

[2] = test system: adjuvant-induced arthritis in rats; experiment: Established Adjuvant-Induced Arthritis in Rats; format: in vivo, Charles River Lewis male rats; details: for ED50: 168 h, read-out: Adjuvant Arthritis ED50 % Decrease From Control Paw Volume
[3] = Table III, oral, fasted female white mice
[4] = Table III, oral daily, 7 days, rat, from dose-response regression lines
[5] = daily oral dose 45 mg/kg, 7 days, rat, footnote 1 p < .001, footnote 2 p < .05 vs control

| Compound | ED50 ([1]; po) [mg/kg] | ED50 ([2]; Rattus norvegicus, po) [mg/kg] | also measured |
| --- | --- | --- | --- |
| C[Si](C)(C)c1cc(-c2ccccc2)c(-c2ccccc2)s1 [Example 4] | 15 | 45 | – |
| CC(C)Cc1ccc(C(C)C(=O)O)cc1 (centres unmarked) [Ibuprofen, reference compound] | – | – | ED50 [1, 3]: 10 mg/kg; ED50 [2, 4]: 100 mg/kg |
| COc1ccc(-c2cc([Si](C)(C)CCC(F)(F)F)sc2-c2ccc(OC)cc2)cc1 [Example 9] | – | 30 | – |
| C[Si](C)(C)c1cc(-c2ccc(F)cc2)c(-c2ccc(F)cc2)s1 [Example 3] | 4.5 | – | Adjuvant Arthritis Percent Decrease From Control Paw Volume ([2]; daily oral dose 27 mg/kg, 7 days, rat, p < .001 vs control (Student's t)): 37% |
| CSc1ccc(-c2sc([Si](C)(C)C)cc2-c2ccc(F)cc2)cc1 [Example 6] | – | – | Adjuvant Arthritis Percent Decrease From Control Paw Volume ([2]; daily oral dose 81 mg/kg, 7 days, rat, p < .001 vs control (Student's t)): 42% |
| Cc1ccc(-c2cc([Si](C)(C)C)sc2-c2ccc(C)cc2)cc1 [Example 5] | 135 | – | Adjuvant Arthritis Percent Decrease From Control Paw Volume [2, 5]: 44% |
| COc1ccc(-c2cc([Si](C)(C)C)sc2-c2ccc(OC)cc2)cc1 [Example 1, 2,3-Bis(4-methoxyphenyl)-5-(trimethylsilyl)thiophene] | 0.19 | 8 | – |
| COc1ccc2c(c1)c(CC(=O)O)c(C)n2C(=O)c1ccc(Cl)cc1 [Indomethacin, reference compound] | 0.35 | 0.3 | – |
| C=C[Si](C)(C)c1cc(-c2ccc(OC)cc2)c(-c2ccc(OC)cc2)s1 [Example 7, 2,3-bis(4-methoxyphenyl)-5-(ethenyldimethylsilyl)thiophene] | 0.23 | 6.8 | – |
| CC[Si](CC)(CC)c1cc(-c2ccc(OC)cc2)c(-c2ccc(OC)cc2)s1 [Example 10] | 5.2 | 25 | – |
| C=CC[Si](C)(C)c1cc(-c2ccc(OC)cc2)c(-c2ccc(OC)cc2)s1 [Example 8, 2,3-bis(4-methoxyphenyl)-5-[(2-propenyl)dimethylsilyl]thiophene] | 0.76 | 9.4 | – |
| COc1ccc(-c2cc([Si](C)(C)OC)sc2-c2ccc(OC)cc2)cc1 [Example 21, 2,3-Bis(4-methoxyphenyl)-5-(methoxydimethylsilyl)thiophene] | 3.8 | 9.8 | – |
| COc1ccc(-c2cc([Si](C)(C)C(C)(C)C)sc2-c2ccc(OC)cc2)cc1 [Example 11] | > 108 | 40 | – |
| CC(=O)Oc1ccccc1C(=O)O [Aspirin, reference compound] | 135 | – | – |
| COc1ccc(-c2cc([SiH](C)C)sc2-c2ccc(OC)cc2)cc1 [Example 2, 2,3-Bis(4-methoxyphenyl)-5-(dimethylsilyl)thiophene] | 2.1 | 14.5 | – |
| COc1ccc(-c2cc([Si](C)(C)c3ccccc3)sc2-c2ccc(OC)cc2)cc1 [Example 12] | < 108 | 55 | – |
| CCCCC1C(=O)N(c2ccccc2)N(c2ccccc2)C1=O [Phenylbutazone, reference compound] | – | – | ED50 [1, 3]: 80 mg/kg; ED50 [2, 4]: 10 mg/kg |
| COc1ccc(-c2cc([Si](C)(C)Cc3ccccc3)sc2-c2ccc(OC)cc2)cc1 [Example 13] | – | – | Adjuvant Arthritis Percent Decrease From Control Paw Volume [2, 5]: 24% |
